Source: patent US11401271B2, “Fused heterocyclic compound, pyrazole-ring-containing fused heterocyclic compound, agricultural composition containing thereof, and method of using the composition” (SOUTH CHINA AGRICULTURAL UNIVERSITY, priority 2017, dated 2022)
Counter-ions that a name gives are not always drawn. Like-named read-outs stand apart in the source and are kept apart here.

What was measured:
Experiment in all cases: whole plant or invertebrate
Type in all cases: in vivo
Plutella xylostella = conditions: for mortality at 500 ppm: Plutella xylostella, read-out: Plutella xylostella Mortality (%) 500 ppm
Experimental: (1) Insecticidal Activity on 2nd-Instar Larvae of Plutella xylostella.
Plutella xylostella (L.) is a lepidoptera pest with a chewing mouthpart and is a common vegetable pest. The 2nd-instar larvae of Plutella xylostella were used as test objects and tested by using a leaf immersion feeding method.
(§1) Operation process: Samples were weighed accurately, and respectively added with 200 μL of dimethyl sulfoxide to prepare 10 g/L mother liquor which was diluted into a concentration of 500 ppm with an aqueous solution containing 0.05% of Tween-80 during the test. A hole puncher with a diameter of 1.0 cm was used to make cleaned cabbage leaves into leaf discs. The leaf discs were immersed in a liquid medicine, taken out after 5 seconds, air-dried naturally, and transferred into a clean vessel. About 35 2nd-instar larvae of Plutella xylostella were put into the vessel and fed at a constant temperature of 28° C. Each concentration was repeated 3 times, and an aqueous solution containing 0.05% of Tween-80 was used as a control group. After being treated for 24 hours, a number of dead Plutella xylostella was counted, and a mortality (%) was calculated according to a formula that mortality (%)=(number of live larvae in the control group−number of treated live larvae)/number of live larvae in the control group*100%.

Spodoptera exigua = conditions: for mortality at 500 ppm: Spodoptera exigua, read-out: Spodoptera exigua Mortality (%) 500 ppm
Experimental: (2) Insecticidal Activity on 2nd-Instar Larvae of Spodoptera exigua.
Spodoptera exigua is a lepidoptera pest with a chewing mouthpart and is a common vegetable pest. The 2nd-instar larvae of Spodoptera exigua were used as test objects and tested by using a leaf immersion feeding method.
as §1, with “μL,” for “μL”, “2nd -instar” for “2nd-instar”, “Spodoptera exigua” for “Plutella xylostella”, “group −number” for “group−number”, “group * 100%.” for “group*100%.”

Aphis craccivora = conditions: for Aphis craccivora Mortality (%): immersion 5 seconds, counted after 24 hours; for mortality at 500 ppm: Aphis craccivora, read-out: Aphis craccivora Mortality (%) 500 ppm
Experimental: (3) Insecticidal Activity on Aphid Adults.
Aphid is a homoptera pest with a piercing-sucking mouthpart and is a common vegetable pest. Aphis craccivora were taken as test objects and tested by using an impregnation method.
Operation process: Samples were weighed accurately, and respectively added with 200 μL of dimethyl sulfoxide to prepare 10 g/L mother liquor which was diluted into a concentration of 500 ppm with an aqueous solution containing 0.05% of Tween-80 during the test. After the wingless Aphis craccivora adults stably sucked on bean sprouts, the wingless Aphis craccivora adults together with the bean sprouts were immersed into a liquid medicine with a concentration of 500 ppm, taken out after 5 seconds, air-dried naturally, transferred into a clean vessel, and fed at a constant temperature of 23° C. Each concentration was repeated 3 times, and an aqueous solution containing 0.05% of Tween-80 was used as a control group. After being treated for 24 hours, a number of dead Aphis craccivora was counted, and a mortality (%) was calculated according to a formula that mortality (%)=(number of live Aphis craccivora in the control group−number of treated live Aphis craccivora)/number of live Aphis craccivora in the control group*100%.

Solenopsis invicta = conditions: for mortality at 100 ppm: Solenopsis invicta
Experimental: (4) Insecticidal Activity on Solenopsis invicta.
As a hymenoptera pests and a social insect, Solenopsis invicta is one of the most destructive invasive organisms. Solenopsis invicta were used as test objects and tested by using a water test tube poison-feeding method.
Operation process: Samples were weighed accurately, and respectively added with 200 μL of dimethyl sulfoxide to prepare 10 g/L mother liquor which was diluted into a concentration of 100 ppm with a mixed aqueous solution containing 0.05% of Tween-80 and 5% of honey during the test. […] The raising test tube was placed in a raising box horizontally, and a small amount of ham sausages were added to the raising test tube as food to raise the Solenopsis invicta at a constant temperature of 25° C. After being treated for 24 hours and 72 hours, a number of live Solenopsis invicta and a number of dead Solenopsis invicta were counted, and a mortality (%) was calculated according to a formula that mortality (%)=(number of live Solenopsis invicta in the control group−number of treated live Solenopsis invicta)/number of live Solenopsis invicta in the control group*100%.

[1] = 500 ppm, 2nd-instar larvae, leaf immersion feeding
[2] = 100 ppm, 24 h, water test tube poison-feeding
[3] = 100 ppm, 72 h, water test tube poison-feeding
[4] = 24 h, read-out: Solenopsis invicta Mortality (%) 100 ppm 24 h, 100 ppm, 24 h, water test tube poison-feeding
[5] = 72 h, read-out: Solenopsis invicta Mortality (%) 100 ppm 72 h, 100 ppm, 72 h, water test tube poison-feeding
[6] = 500 ppm, 2nd-instar larvae, leaf immersion feeding, 24 hours
[7] = 500 ppm, wingless adults, impregnation method, 24 hours

Compound | Plutella xylostella Mortality (%) (Plutella xylostella; [1]) | Spodoptera exigua Mortality (%) (Spodoptera exigua; [1]) | Aphis craccivora Mortality (%) (Aphis craccivora; 500 ppm, wingless adults) | Solenopsis invicta Mortality (%) 24 h (Solenopsis invicta; [2]) [%] | Solenopsis invicta Mortality (%) 72 h (Solenopsis invicta; [3]) [%] | further results
COC(=O)C1(CC(=O)OCC(F)(F)F)Nc2c([S+]([O-])C(F)(F)F)c(C#N)nn2-c2c(C(F)(F)F)ccc(Cl)c21 (centres unmarked) [e-3] | 100 | 95 | 100 | 20 | 98 | 
CC1(C)Nc2c(Br)c(C#N)nn2-c2ccccc21 [Compound A2] |  |  |  |  |  | mortality at 500 ppm (Plutella xylostella): 97%; mortality at 500 ppm (Spodoptera exigua; 24 h): 100%; mortality at 500 ppm (Aphis craccivora; 24 h): 100%; mortality at 100 ppm (Solenopsis invicta; [4]): 19%; mortality at 100 ppm (Solenopsis invicta; [5]): 93%
N#Cc1nn2c(c1[S+]([O-])C(F)(F)F)NC(C#N)c1cc(C(F)(F)F)cc(Cl)c1-2 (stereo not drawn) [d-82] | 95 | 89 | 100 | 25 | 90 | 
COC(=O)C1Nc2c([S+]([O-])C(F)(F)F)c(C(F)(F)F)nn2-c2cncc(Cl)c21 (stereo not drawn) [b-87, 6-chloro-2-trifluoromethyl-3-trifluoromethylsulfinyl-4,5-dihydropyrazole[1,5-α]quinazoline[4,3-e]pyridine-5-methyl formate] | 95 | 95 | 100 | 14 | 100 | 
CSc1nn2c(c1C#N)N(CCBr)C(F)(C(F)(F)F)c1ccccc1-2 (centres unmarked) [Compound A35] |  |  |  |  |  | mortality at 500 ppm (Plutella xylostella): 100%; mortality at 500 ppm (Spodoptera exigua; 24 h): 100%; mortality at 500 ppm (Aphis craccivora; 24 h): 100%; mortality at 100 ppm (Solenopsis invicta; 24 h, read-out: Solenopsis invicta Mortality (%) 100 ppm 24 h): 31%; mortality at 100 ppm (Solenopsis invicta; 72 h, read-out: Solenopsis invicta Mortality (%) 100 ppm 72 h): 99%
COC(=O)C(C)C1Nc2c([S+]([O-])C(F)(F)F)c(C#N)nn2-c2cncc(Cl)c21 (centres unmarked) [b-66] | 96 | 91 | 100 | 28 | 97 | 
COC(=O)CC1(C(=O)OC)Nc2c([S+]([O-])C(F)(F)F)c(CN)nn2-c2c(Cl)cc(C(F)(F)F)cc21 (stereo not drawn) [d-9] | 82 | 79 | 96 | 21 | 77 | 
CC(=O)C1(CC(F)(F)F)Nc2c([S+]([O-])C(F)(F)F)c(C#N)nn2-c2ncc(C(F)(F)F)cc21 (centres unmarked) [a-36] |  |  |  |  |  | Plutella xylostella Mortality (%) 500 ppm (Plutella xylostella; [1]): 100%; Spodoptera exigua Mortality (%) 500 ppm (Spodoptera exigua; [6]): 96%; Aphis craccivora Mortality (%) 500 ppm (Aphis craccivora; [7]): 100%; Solenopsis invicta Mortality (%) 100 ppm 24 h (Solenopsis invicta; [2]): 14%; Solenopsis invicta Mortality (%) 100 ppm 72 h (Solenopsis invicta; [3]): 91%
COC(=O)C1Nc2c([S+]([O-])C(F)(F)F)c(C#N)nn2-c2ncc(C(F)(F)F)cc21 (centres unmarked) [a-64] |  |  |  |  |  | Plutella xylostella Mortality (%) 500 ppm (Plutella xylostella; [1]): 100%; Spodoptera exigua Mortality (%) 500 ppm (Spodoptera exigua; [6]): 99%; Aphis craccivora Mortality (%) 500 ppm (Aphis craccivora; [7]): 100%; Solenopsis invicta Mortality (%) 100 ppm 24 h (Solenopsis invicta; [2]): 20%; Solenopsis invicta Mortality (%) 100 ppm 72 h (Solenopsis invicta; [3]): 99%
CC(=O)C1(CBr)Nc2c([S+]([O-])C(F)(F)F)c(C#N)nn2-c2cncc(Cl)c21 (centres unmarked) [b-34] | 90 | 87 | 100 | 10 | 100 | 
N#Cc1nn2c(c1[S+]([O-])C(F)(F)F)NC(Cl)c1cc(C(F)(F)F)cc(Cl)c1-2 (stereo not drawn) [d-90] | 82 | 80 | 90 | 16 | 85 | 
N#Cc1nn2c(c1[S+]([O-])C(F)(F)F)NC(Cc1ccccc1)(C(=O)C(F)(F)F)c1cc(C(F)(F)F)cnc1-2 (centres unmarked) [a-27] |  |  |  |  |  | Plutella xylostella Mortality (%) 500 ppm (Plutella xylostella; [1]): 100%; Spodoptera exigua Mortality (%) 500 ppm (Spodoptera exigua; [6]): 100%; Aphis craccivora Mortality (%) 500 ppm (Aphis craccivora; [7]): 100%; Solenopsis invicta Mortality (%) 100 ppm 24 h (Solenopsis invicta; [2]): 25%; Solenopsis invicta Mortality (%) 100 ppm 72 h (Solenopsis invicta; [3]): 100%
COC(=O)C1(CC(C)=O)Nc2c([S+]([O-])C(F)(F)F)c(C#N)nn2-c2c(Cl)cc(C(F)(F)F)cc21 (stereo not drawn) [d-33] | 100 | 99 | 100 | 26 | 100 | 
COC(=O)CC1(C#N)Nc2c([S+]([O-])C(F)(F)F)c(C#N)nn2-c2c(Cl)cc(C(F)(F)F)cc21 (stereo not drawn) [d-67] | 100 | 90 | 100 | 41 | 99 | 
COC(=O)CC1(C(=O)OC)c2cc(C(F)(F)F)cc(Cl)c2-n2nc(C#N)c([S+]([O-])C(F)(F)F)c2N1C (centres unmarked) [Compound C39] |  |  |  |  |  | mortality at 500 ppm (Plutella xylostella): 90%; mortality at 500 ppm (Spodoptera exigua; 24 h): 100%; mortality at 500 ppm (Aphis craccivora; 24 h): 98%; mortality at 100 ppm (Solenopsis invicta; [4]): 24%; mortality at 100 ppm (Solenopsis invicta; [5]): 87%
COC(=O)Nc1cc2n(n1)-c1cnccc1C(F)(CC(F)(F)F)N2 (centres unmarked) [Compound A40] |  |  |  |  |  | mortality at 500 ppm (Plutella xylostella; [1]): 96%; mortality at 500 ppm (Spodoptera exigua; [6]): 100%; mortality at 500 ppm (Aphis craccivora; [7]): 100%; mortality at 100 ppm (Solenopsis invicta; 24 h, 100 ppm, 24 h, water test tube poison-feeding, read-out: Solenopsis invicta Mortality (%) 100 ppm 24 h): 20%; mortality at 100 ppm (Solenopsis invicta; 72 h, 100 ppm, 72 h, water test tube poison-feeding, read-out: Solenopsis invicta Mortality (%) 100 ppm 72 h): 97%
